The test system of experiment [1] is Candida albicans ATCC 10321. Nature of the experiment: MIC, broth microdilution (human pathogens). Format: cell-based. Particulars: ATCC10321; Candida albicans ATCC 10321; SDB, 30 °C, 48 h; read-out: Minimum inhibitory concentration (MIC). (In general: Broth dilution looks for growth in wells or tubes with falling amounts of substance.)
Another experiment deals with Candida albicans 40. As to the kind of experiment: MIC, broth microdilution (human pathogens). Format: cell-based. To be noted: Candida albicans 40; SDB, 30 °C, 48 h; read-out: Minimum inhibitory concentration (MIC).
In a further experiment the test system is Candida parapsilosis 7. Nature of the experiment: MIC, broth microdilution (human pathogens). Particulars: Lodderomyces parapsilosis; Candida parapsilosis 7; SDB, 30 °C, 48 h; read-out: Minimum inhibitory concentration (MIC). It is filed as cell-based.
Experiment [2] has as its system Saccharomyces cerevisiae 42. As to the kind of experiment: MIC, broth microdilution (human pathogens). It is filed as cell-based. Particulars: Saccharomyces cerevisiae 42; SDB, 30 °C, 48 h; read-out: Minimum inhibitory concentration (MIC).
The test system of experiment [3] is Cryptococcus neoformans B 3501. As to the kind of experiment: MIC, broth microdilution (human pathogens). Format: cell-based. Particulars: B3501; Cryptococcus neoformans B 3501; SDB, 30 °C, 48 h; read-out: Minimum inhibitory concentration (MIC).
Experiment [4] concerns Cryptococcus neoformans ATCC 11240. As to the kind of experiment: MIC, broth microdilution (human pathogens). It is filed as cell-based. To be noted: ATCC11240; Cryptococcus neoformans ATCC 11240; SDB, 30 °C, 48 h; read-out: Minimum inhibitory concentration (MIC).
The test system of experiment [5] is other genera tested (other fungi strains). As to the kind of experiment: Agar Disk Diffusion Assay, other genera. It is filed as cell-based. Here is the method:
The antifungal activity of pomegranate compounds was evaluated against 19 clinically isolated fungal strains, including nine belonging to Candida albicans species, two belonging to Aspergillus genus, one belonging to Cryptococcus genus, and one Saccharomyces cerevisiae. The C. albicans strains were isolated on CHROMID agar, Aspergillus and Cryptococcus genus were isolated on SDA-CAF and one Saccharomyces cerevisiae on SDA. All the isolates were confirmed by matrix-assisted laser desorption ionization (MALDI) time-of-flight mass spectrometry (TOF/MS). Strains from the American Type Culture Collection (ATCC) were included. All strains were maintained in SDB with 20% (w/v) glycerol at −80 °C until use and sub-cultured in SDA before each test.
The preliminary determination of the antifungal activity of the target compounds (punicalagin, punicalin, ellagic acid, and gallic acid) from pomegranate was carried out by means of the agar disk diffusion assay, according to the standard procedure of the Clinical and Laboratory Standards Institute, with slight modifications. Plates containing SDA were uniformly spread with 100 μL of 10^3 conidia/mL of each strain suspension. […] Disks containing fluconazole (25 μg), amphotericin B (25 μg) and DMSO (20 μL) were used as the positive and the negative control, respectively. The antifungal activity of pomegranate compounds was evaluated by measuring the diameter of the clear inhibition zone formed right around the disks after 48 h incubation at 30 ± 1 °C. The experiment was carried out in triplicate.
(Agar diffusion results depend on both activity and mobility in agar.)

Experiment [6] deals with C. albicans 1 (clinically isolated strain). Nature of the experiment: Time-kill curves. It is filed as cell-based, Candida albicans. Particulars: compound at its MIC value, 0–96 h.
For a further experiment, the system named is Candida albicans SC 5314. Nature of the experiment: Time-kill curves. Particulars: C. albicans SC 5314; compound at its MIC value; 0–96 h. It is filed as cell-based.

From paper PMC8073005, “Antifungal Activity and DNA Topoisomerase Inhibition of Hydrolysable Tannins from Punica granatum L” (International Journal of Molecular Sciences, 2021) come the findings set out here.

Molecules are shown by their SMILES. ≈ marks a conversion by molar mass, not a printed value.

Regarding `O=C1OC[C@H]2OC(O)[C@H](O)[C@@H](O)[C@@H]2OC(=O)c2cc(O)c(O)c(O)c2-c2c(O)c(O)c3oc(=O)c4c(c(O)c(O)c5oc(=O)c2c3c54)-c2c1cc(O)c(O)c2O` (mixture of isomers) [Punicalin, punicalin], the MIC in experiment [1] is 127 µM; in the experiment with Candida albicans 40, 127 µM; in the experiment on Candida parapsilosis 7 it was 3.8 µM; in [2] it was 3.8 µM; in [3], 1.9 µM; in experiment [4] it was 1.9 µM. In addition, in experiment [5] (100 µg), the “share of other fungi strains with inhibition zone from 11 to 20 mm” value is on record as 63%. The “time-kill curve (susceptibility time-course)” value in experiment [6] is reported as “after 60 h of incubation, punicalin becomes less effective than punicalagin”.

Regarding `O=c1oc2c(O)c(O)cc3c(=O)oc4c(O)c(O)cc1c4c23` [Ellagic Acid, ellagic acid], the MIC in experiment [1] came out at 2.5 µM (≈ 0.755 µg/mL); in the experiment on Candida albicans 40, 331 µM (≈ 100 µg/mL); with Candida parapsilosis 7, 331 µM (≈ 100 µg/mL); in experiment [2], 662 µM (≈ 200 µg/mL); in experiment [3], 331 µM (≈ 100 µg/mL); in [4], 331 µM (≈ 100 µg/mL). Also, the “share of other strains with growth inhibition from 21 to 30 mm” value in experiment [5] (62.5 µg) stood at 100%. In addition, the “time-kill curve (susceptibility time-course)” value with Candida albicans SC 5314 is listed as “better antifungal activity against the reference C. albicans strain after 72 h of exposure”; in experiment [6] it was “lowest activity compared with the other compounds”.
